Where a name gives a salt, the structure may show the parent alone. Read-outs that look alike come from different tables or passages of the source.
Assays:
[1] = Clinical study: bupivacaine plasma pharmacokinetics after sponge implantation; type: in vivo, human
Experimental: Patients received three 5 cm×5 cm (×0.5 cm thick) sponges; one sponge divided between areas adjacent the surgical site (in this case, adjacent the location of the now-removed uterus), one sponge divided and placed across the incision in the wall of the body cavity (in this case, the peritoneum) and the final sponge divided and placed between the sheath and skin around the incision. Each sponge contained 50 mg of bupivacaine hydrochloride, giving a total dose of 150 mg per patient.
The patients were scheduled to receive a hysterectomy in the absence of uterine adenocarcinoma, cervical cancer, leiomyosarcoma or the suspicion of these cancers.

plasma proteins = details: cited from earlier work
[2] = test system: Caesarian section patients; details: […] or 0.5%, 20 ml, cited from earlier work
hysterectomy patients [3] = details: cited from earlier work; for average postoperative morphine consumption: infiltration in deep and superficial layers of the wound after abdominal hysterectomy
[4] = neonates; cited from earlier work
[5] = in vivo; cited from earlier work
hysterectomy patients [6] = details: cited from earlier work
[7] = mean, n=11, three sponges, 150 mg

## CCCCN1CCCCC1C(=O)Nc1c(C)cccc1C (stereo not drawn) [Bupivacaine Hydrochloride]
[1]; efficacy population n=12, three sponges, 150 mg bupivacaine HCl, column head Mean, marked *
  tlag: 0.000 h
[1]; female, human, 150 mg, mean, n=12, three sponges, 150 mg bupivacaine HCl, read-out: Cmax
  Cmax: 225 ng/mL
[1]; female, human, mean, n=11, three sponges, 150 mg
  AUC(0-inf): 6360 ng·h/mL
[1]; female, human, mean, n=12, three sponges, 150 mg
  AUC(0-t): 6530 ng·h/mL
[1]; female, human, n=12, three sponges, 150 mg, column head Mean, marked *
  Tmax: 12 h
[1]; [7]
  t1/2z: 10.092 h
  λz: 0.07084 h⁻¹

## CCCCN1CCCCC1C(=O)Nc1c(C)cccc1C (stereo not drawn) [bupivacaine, Bupivacaine]
Plasma proteins
  bound to plasma proteins: about 95%
[2]; Caesarian section
  duration of the effect on analgesic consumption: 4 h
[2]; three studies on Caesarian section
  reduction in analgesic consumption: 20-50%
Hysterectomy patients [3]; […] solution 45 ml infiltrated subfascially and subcutaneously, Hannibal
  reduction in analgesic consumption: 50%
Hysterectomy patients [3]; Klein et al 2000
  average postoperative morphine consumption: 54 mg
Hysterectomy patients [3]; Ng et al 2002
  average postoperative morphine consumption: 44 mg
Hysterectomy patients [3]; subcutaneous infiltration of solution, Cobby 1997, Victory 1995
  analgesia compared with no treatment: no improvement in analgesia
[1]; female, human, 150 mg, after implantation of three bupivacaine-collagen sponges, 150 mg, read-out: highest individual Cmax
  Cmax: 440 ng/mL
[1]; female, human, 150 mg, after implantation of three bupivacaine-collagen sponges, 150 mg, read-out: mean Cmax
  Cmax: 220 ng/mL
[4]
  Reported half-lives: about 8 hours
[5]
  known systemic toxicity level: 2 to 4 µg/mL

## CCCCN1CCCC[C@H]1C(=O)Nc1c(C)cccc1C [levobupivacaine]
Hysterectomy patients [6]; […] infusion 12.5 mg/hr over 24 hours, 1-2 hours post surgery
  incisional pain, deep pain and pain on coughing versus normal saline: significant reduction
Hysterectomy patients [6]; […] infusion 12.5 mg/hr, 4-24 hour period
  Total ketobemidone (PCA narcotic): significantly reduced

## CCN(CC)CC(=O)Nc1c(C)cccc1C [lidocaine]
Hysterectomy patients [3]; 500 mg aerosol subcutaneously, first 24 hours, Sinclair et al 1996
  reduction in pain scores and supplementary analgesic consumption: approximately 50%

— patent publication USRE47826E1, “Drug delivery device for providing local analgesia, local anesthesia or nerve blockage” (INNOCOLL PHARMACEUTICALS LIMITED, priority 2007, dated 2020)
